Reference: US20250101062A1, “ANTIMICROBIAL PEPTIDES” (Board of Regents of the University of Nebraska, priority 2023, published 2025)
In brackets after ≈: the same amount, converted by molar mass. Like-named read-outs stand apart in the source and are kept apart here. Where no end group is shown, it is not given here.

Key:
S. aureus USA300 LAC = assay: microbe, parasite or virus in culture; assay type: cell-based, Staphylococcus aureus
Procedure: (§1) The following resistant bacterial clinical strains were used in this study: S. aureus USA300 LAC, S. epidermidis 1457, E. coli E423-17, P. aeruginosa E411-17, K. pneumoniae E406-17, and A. baumannii B28-16. While the S. aureus USA300 strain is methicillin-resistant, most of the Gram-negative bacteria contain extended-spectrum beta-lactamase and are resistant to beta-lactam antibiotics. Peptide activity against bacteria was tested using an established lab protocol (Mishra, et al. (2017) Acta Biomater., 49:316-328). In brief, a peptide concentration gradient with twofold dilution was made in the 96-well polystyrene microplate at 10 μL per well. Bacteria were grown to the exponential phase (i.e., optical density at 600 nm≈0.5), diluted to ˜10^5 CFU/mL in different percentages of MHB, TSB, or LB, and partitioned into the 96-well microplate at 90 μL per well. […] They were diluted with autoclaved distilled water to obtain different percentages. The microplates were incubated at 37° C. overnight and read on a ChroMate™ 4300 microplate reader at 600 nm (GMI, Ramsey, MN). The peptide concentration in the wells without bacterial growth is the MIC. As is the convention, MIC values were represented as ranges.
(§2) For pH effects on peptide activity, the pH of the medium was adjusted to a targeted pH for the autoclave and then remeasured at room temperature. For salt and serum effects on peptide activity, stock NaCl solution or human serum was added to the media.
(§3) Peptide activity against bacteria were tested using the CLSI standard procedure with minor modifications (Clinical and Laboratory Standards Institute (2018) Performance standards for antimicrobial susceptibility testing, 9th ed.; Mishra, et al. (2019) Proc. Natl. Acad. Sci., 116(27):13517-13522). In brief, a peptide concentration gradient with twofold dilution was made in the 96-well polystyrene microplate at 10 μL per well. Bacteria were grown to the exponential phase (i.e., optical density at 600 nm≈0.5), diluted to ˜10^5 CFU/mL in MHB, and partitioned into the 96-well microplate at 90 μL per well. The microplates were incubated at 37° C. overnight and read on a ChroMate® 4300 Microplate Reader at 600 nm (GMI, Ramsey, MN). The peptide concentration in the wells without bacterial growth is the minimal inhibitory concentration (MIC). As the convention, MIC values were represented as ranges.
(§4) For pH effects on peptide activity, the pH of the medium was adjusted to a targeted pH for autoclave and then remeasured at room temperature. For salt and serum effects on peptide activity, stock NaCl solution or human serum were added to the media.

[1] = Effect of MHB dilution on antibacterial activity of a panel of antibiotics; assay type: cell-based; conditions: MHB from 100 to 12.5%
Procedure: FIGS. 2A-2D show biofilm disruption activity of human LL-37 (FIGS. 2A and 2B) and 17BIPHE2 (FIGS. 2C and 2D) against the 24 hour preformed biofilms of S. aureus USA300 LAC in different MHB media: 12.5% MHB (FIGS. 2A and 2C) and 100% MHB (FIGS. 2B and 2D). FIGS. 2E-2H show the treatment outcome of LL-37 (FIGS. 2E and 2F) and 17BIPHE2 (FIGS. 2G and 2H) against the 24-hour preformed biofilms of E. coli E423-17 in different MHB media: 12.5% MHB (FIGS. 2E and 2G) and 100% MHB (FIGS. 2F and 2H). […] Growth curves of S. aureus USA 300 LAC (FIGS. 2J-2K) and P. aeruginosa 152 (FIGS. 2L-2M) in 12.5%, 25%, 50% and 100% MHB or TSB medium (curves from bottom to top).
The effects of MHB dilution on the antimicrobial activity of a panel of antibiotics was also compared (FIG. 2I).

MRSA USA300 = assay: microbe, parasite or virus in culture; assay type: cell-based, Staphylococcus aureus
Procedure: The experiment was conducted as described (Lakshmaiah et al. (2020) Proc. Natl. Acad. Sci., 117:19446-19454). Briefly, MRSA USA300 was grown to the exponential phase in MHB and diluted to OD600 0.001 (˜10^5 CFU/mL). Aliquots of 90 μL were added to a 96-well polystyrene microplate (Costar, Corning, NY) containing 10 μL of serially diluted LL-37mini, nafcillin, or daptomycin. After overnight incubation at 37° C., the plates were read at 600 nm using a ChroMate™ microplate reader (GMI, Ramsey, MN). Untreated bacterial culture and medium were included as untreated control and blank, respectively. The MIC is the lowest peptide concentration that inhibited the bacterial growth. The wells with sub-MIC levels of the peptides that retained growth approximately half the growth of the control wells were reinoculated in fresh MHB with sub-MIC concertation of peptides or antibiotics to attain exponential phase for MIC determination. In total, 17 passages of the bacterial cultures were conducted. A rapid increase in MIC is an indication of antibiotic resistance.

K. pneumoniae E406-17 = assay type: cell-based, Klebsiella pneumoniae
Procedure: as §1, §3

P. aeruginosa E411-17 = assay: microbe, parasite or virus in culture; assay type: cell-based, Pseudomonas aeruginosa; conditions: for MIC: read-out: Antimicrobial activity (MIC)
Procedure: as §1, §2, §3, §4

A. baumannii B28-16 = assay type: cell-based, Acinetobacter baumannii; conditions: B28-16
Procedure: as §1, §3

[2] = system: human keratinocyte HaCaT cells; assay: Cell viability assay (MTS); assay type: cell-based
Procedure: Human keratinocyte HaCaT cells were grown in DMEM/high glucose (Hyclone, UT) containing 10% fetal bovine serum (Mediatech, Corning, Manassas, VA). […] The mixture was incubated at 37° C. in 5% CO2 for 24 hours.
(§5) HepG2 cells were cultured in ATCC-formulated Eagle's Minimum Essential Medium with 10% FBS. A549 cells were grown in ATCC-formulated F-12K Medium containing 10% FBS.

E. coli E423-17 = assay type: cell-based, Escherichia coli; conditions: E423-17
Procedure: as §1, §2, §3, §4

human red blood cells = assay: Hemolytic assay; assay type: cell-based; conditions: red cells of human
Procedure: The hemolytic effects of peptides were evaluated using a method with minor modifications (Lakshmaiah Narayana, et al. (2021) ACS Infect. Dis., 7:1795-1808). Human red blood cells (hRBCs, UNMC Blood Bank) were washed (3×) with blood bank saline (isotonic solution 0.90% w/v, Fisher). Cells were diluted to 2% using the saline solution, and aliquots of 90 μL were added to a 96-well polystyrene microplate containing 10 μL of serially diluted peptide solutions. After incubation at 37° C. for 1 hour, plates were centrifuged at 500 g for 5 minutes. Aliquots of the supernatant were transferred to a 96-well microplate. The amount of hemoglobin released was measured at 545 nm by using a ChroMate™ microplate reader. […] HC50 is defined as the concentration of the peptide that caused 50% lysis.
The hemolytic effects of peptides were evaluated (Narayana, et al. (2020) Proc. Natl. Acad. Sci., 117(32):19446-9454). In brief, human red blood cells (UNMC Blood Bank) were washed (3×) and diluted to 2% using the saline solution. Aliquots of 90 μL were mixed with 10 μL of serially diluted peptide solutions. After incubation at 37° C. for 1 hour, plates were centrifuged at 500 g for 5 minutes and aliquots of the supernatant were transferred to a new 96-well microplate to measure the amount of hemoglobin released at 545 nm (relative to 1% Triton® X-100) using a ChroMate® Microplate Reader.

Cytotoxicity assay (MTS) = assay type: cell-based; conditions: human, HepG2 cells, read-out: LC50
Procedure: as §5

S. epidermidis 1457 = assay: microbe, parasite or virus in culture; assay type: cell-based, Staphylococcus epidermidis; conditions: for MIC: read-out: Antimicrobial activity (MIC) S. epidermidis 1457
Procedure: as §1, §3

P. aeruginosa E416-17 = assay type: cell-based, Pseudomonas aeruginosa
Procedure: as §3

[3] = USA300, pH 6.21, read-out: Antimicrobial activity (MIC)
[4] = USA300, pH 7.22, read-out: Antimicrobial activity (MIC)
[5] = USA300, pH 8.13, read-out: Antimicrobial activity (MIC)
[6] = USA300, read-out: Antimicrobial activity (MIC)

Molecule | Antimicrobial activity (MIC) P. aeruginosa E411-17 (P. aeruginosa E411-17; E411-17) [µM] | MIC (P. aeruginosa E411-17; E411-17, pH 6.21) [µM] | MIC (P. aeruginosa E411-17; E411-17, pH 8.13) [µM] | CC50 at 24 h (Cytotoxicity assay (MTS)) [µM] | MIC (S. aureus USA300 LAC; [3]) [µM] | MIC (S. aureus USA300 LAC; [4]) [µM] | MIC (S. aureus USA300 LAC; [5]) [µM] | MIC (S. aureus USA300 LAC; [6]) [µM] | Antimicrobial activity (MIC) A. baumannii B28-16 (A. baumannii B28-16) [µM] | Antimicrobial activity (MIC) E. coli E423-17 (E. coli E423-17) [µM] | Hemolysis (HC10), 10% hemolytic concentration (human red blood cells) [µM] | MIC K. pneumoniae E406-17 (K. pneumoniae E406-17) [µM] | MIC P. aeruginosa E416-17 (P. aeruginosa E416-17) [µM] | further results
CCOc1ccc2ccccc2c1C(=O)N[C@@H]1C(=O)N2[C@@H]1SC(C)(C)[C@@H]2C(=O)O [Nafcillin] |  |  |  |  |  |  |  |  |  |  |  |  |  | MIC (S. aureus USA300 LAC; Staphylococcus aureus, MRSA / USA300, MRSA in MHB, 20% serum, read-out: Antimicrobial activity (MIC)): 16 to 32 µM (≈ 6.63 to 13.3 µg/mL); MIC (S. aureus USA300 LAC; Staphylococcus aureus, MRSA / USA300, pH 6.3, MRSA in MHB, pH 6.3, read-out: Antimicrobial activity (MIC)): 16 µM (≈ 6.63 µg/mL); MIC (S. aureus USA300 LAC; Staphylococcus aureus, MRSA / USA300, pH 7.2, MRSA in MHB, pH 7.2, read-out: Antimicrobial activity (MIC)): 4 to 8 µM (≈ 1.66 to 3.32 µg/mL); change in MIC with dilution of MHB [1]: small changes in MIC values; increase of MIC (MRSA USA300; 17 passages at sub-MIC): 32 fold; MIC (MRSA USA300; Staphylococcus aureus, read-out: MIC after multiple passages): 128 µM (≈ 53.1 µg/mL)
KRIWQRWK-NH2 [W540] |  |  |  |  |  |  |  |  |  |  |  |  |  | Activity (MIC) K. pneumoniae (K. pneumoniae E406-17): >32 µM; Activity (MIC) P. aeruginosa (P. aeruginosa E411-17; E411-17): >32 µM; Activity (MIC) S. aureus (S. aureus USA300 LAC; USA300): >32 µM; Activity (MIC) A. baumannii (A. baumannii B28-16): >32 µM; toxicity to human HaCaT skin cells [2]: more toxic than the other peptides; Activity (MIC) E.coli (E. coli E423-17): >32 µM; HC50 (50% hemolysis) (human red blood cells): ~150 µM
KRWWQWWK-NH2 [KR-8+] | 8 | 8 | 8 | 12.5 | >32 | 8 | 8 | 16 | 16 to 32 | 4 | 300 |  |  | MIC (P. aeruginosa E411-17; E411-17, pH 7.22): 8 µM; Antimicrobial activity (MIC) (S. aureus USA300 LAC; USA300): 16 to 32 µM; Antimicrobial activity (MIC) S. aureus USA300 (S. aureus USA300 LAC; USA300): 8 to 16 µM; Antimicrobial activity (MIC) S. epidermidis 1457 (S. epidermidis 1457): 16 to 32 µM
KWKRFFRGWL-NH2 [RetroLL-10+] |  |  |  |  |  |  |  |  |  |  |  | >32 | 4 | 
LWGRFFRKWK-NH2 [LL-10+] | 8 to 16 | 16 | 8 | > 100 | >32 | 16 | 4 | > 32 | >32 | 32 | > 400 | >32 | 8 | MIC (P. aeruginosa E411-17; E411-17, pH 7.22): 8 µM; MIC (P. aeruginosa E411-17; E411-17): >32 µM; MIC S. aureus USA300 (S. aureus USA300 LAC; USA300): 16 µM; MIC (S. aureus USA300 LAC; USA300, read-out: Antimicrobial activity (MIC) S. aureus USA300): 16 µM; MIC E. coli E423-17 (E. coli E423-17): 32 µM; MIC (S. epidermidis 1457): 32 µM
RRWWRWWL-NH2 [W544] |  |  |  |  |  |  |  |  |  |  |  |  |  | Activity (MIC) K. pneumoniae (K. pneumoniae E406-17): 8 to 16 µM; Activity (MIC) P. aeruginosa (P. aeruginosa E411-17; E411-17): 4 µM; Activity (MIC) A. baumannii (A. baumannii B28-16): 8 to 16 µM; toxicity to human HaCaT skin cells [2]: more toxic than the other peptides; HC50 (50% hemolysis) (human red blood cells): about 80 μM
RWWKKWWGK-NH2 [RK-9+] | 8 to 16 | 32 | 4 | > 100 | >32 | 8 | 4 | 32 | >32 | 8 | > 400 |  |  | Antimicrobial activity (MIC) (P. aeruginosa E411-17; E411-17, pH 7.22): 8 to 16 µM; MIC (P. aeruginosa E411-17; E411-17): >32 µM; Antimicrobial activity (MIC) (S. aureus USA300 LAC; USA300): 16 to 32 µM; Antimicrobial activity (MIC) S. aureus USA300 (S. aureus USA300 LAC; USA300): 8 to 16 µM; MIC (S. epidermidis 1457): 16 µM
VWNRLFRKWR-NH2 [RetroRIK-10++] |  |  |  |  |  |  |  |  |  |  |  | >32 | 16 | 
